We go through two molecules from ChEMBL document CHEMBL3593236, “Cloning, characterization and anion inhibition studies of a new γ-carbonic anhydrase from the Antarctic bacterium Pseudoalteromonas haloplanktis” (Bioorg Med Chem, 2015).

This experiment addresses T1, Carbonic anhydrase (Methanosarcina thermophila, UniProt P40881).
T1 sequence (P40881 whole entry): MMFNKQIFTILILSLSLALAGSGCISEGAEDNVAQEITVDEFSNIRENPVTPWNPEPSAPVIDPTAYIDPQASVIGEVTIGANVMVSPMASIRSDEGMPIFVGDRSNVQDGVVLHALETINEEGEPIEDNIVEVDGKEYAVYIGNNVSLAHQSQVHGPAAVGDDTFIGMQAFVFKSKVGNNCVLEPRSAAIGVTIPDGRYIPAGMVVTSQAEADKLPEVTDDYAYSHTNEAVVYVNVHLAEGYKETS

As a reminder, the Ki is a measure of affinity in units of concentration, obtained from inhibition or displacement. High values mean a looser hold on the target, low ones a stronger hold on the target.

Description: Inhibition of archaeon Methanosarcina thermophila gamma-CA after 15 mins by stopped-flow/Co2 hydration assay

In turn, `[Br-].[Na+]` [SODIUM BROMIDE] yielded a Ki of 160 mM.

Molecule `N#C[S-].[Na+]` [THIOCYANATE SODIUM] showed a Ki of 7 mM. Compared with the last molecule, the Ki is about 23-fold lower.
